Reference: patent US3969522A, “Diaryl-pyridyl-imidazole methanes for treating mycotic infections” (Bayer Aktiengesellschaft, priority 1972, dated 1976)
Converted amounts (≈) assume the structure as drawn. Structures can show the parent of a compound that is named as a salt.

Assays:
Format in all cases: cell-based
Candida albicans = assay: series dilution test in vitro, Candida albicans; conditions: 28° C, 24 to 96 hours; for MIC: read-out: Minimum Inhibitory Concentration
Procedure: (§1) A. Determination of the antimycotic action spectrum in vitro by means of the series dilution test
(§2) Sabourauds' milieu d'epreuve is used as the nutrient substrate for dermatophytes and Aspergilli, and meat-broth-glucose-bouillon is used as the nutrient substrate for blastomyces. The incubation temperature is 28° C and the incubation time is 24 to 96 hours.

[1] = system: Trichophyton mentagrophytes; assay: series dilution test in vitro, Trichophyton mentagrophytes; conditions: Sabourauds' milieu d'epreuve, 28° C, 24 to 96 hours; for MIC: read-out: Minimum Inhibitory Concentration
Procedure: as §1, §2

Penicillium commune = assay: series dilution test in vitro, Penicillium commune; conditions: 28° C, 24 to 96 hours; for MIC: read-out: Minimum Inhibitory Concentration
Procedure: as §1, §2

Aspergillis niger = assay: series dilution test in vitro, Aspergillus niger; conditions: Sabourauds' milieu d'epreuve, 28° C, 24 to 96 hours; for MIC: Aspergillus niger, read-out: Minimum Inhibitory Concentration
Procedure: as §1, §2

SMILES	MIC (Candida albicans)	MIC [1]	MIC (Penicillium commune)	MIC (Aspergillis niger)	Minimum Inhibitory Concentration (Candida albicans)	Minimum Inhibitory Concentration [1]	Minimum Inhibitory Concentration (Penicillium commune)	Minimum Inhibitory Concentration (Aspergillis niger)
Cc1cccc(C(c2ccccc2)(c2ccccn2)n2ccnc2)c1C (stereo not drawn) [Example 8, 1-(2,3-dimethylphenyl-phenyl-2-pyridyl)-methyl-imidazole 1,5-naphthalenedisulphonate]					1 µg/mL	1 µg/mL	4 µg/mL	1 µg/mL
Fc1ccc(C(c2ccccc2)(c2ccccn2)n2ccnc2)cc1 (stereo not drawn) [Known Compound 1, 1-(4-fluorophenyl-phenyl-2-pyridyl)-methylimidazole, reference compound]	4 µg/mL (≈ 12.1 µM)	< 4 µg/mL	< 4 µg/mL	4 µg/mL (≈ 12.1 µM)		> 2 µg/mL	> 2 µg/mL	2 µg/mL
Cc1cccc(C(c2ccccc2)(c2ccncc2)n2ccnc2)c1C (stereo not drawn) [Example 9, 1-(2,3-dimethylphenyl-phenyl-4-pyridyl)-methyl-imidazole]	1 µg/mL (≈ 2.95 µM)	0.5 µg/mL (≈ 1.47 µM)	4 µg/mL (≈ 11.8 µM)	1 µg/mL (≈ 2.95 µM)				
Cc1ccc(C(c2ccccc2)(c2ccncc2)n2ccnc2)c(C)c1 (stereo not drawn) [Example 4, 1-(2,4-dimethylphenyl-phenyl-4-pyridyl)-methyl-imidazole]	4 µg/mL (≈ 11.8 µM)	0.5 µg/mL (≈ 1.47 µM)	10 µg/mL (≈ 29.5 µM)	4 µg/mL (≈ 11.8 µM)				
Cc1ccc(C(c2ccccc2)(c2ccncc2)n2ccnc2)cc1C (stereo not drawn) [Example 10, 1-(3,4-dimethylphenyl-phenyl-4-pyridyl)-methyl-imidazole 1,5-naphthalenedisulphonate]					1 µg/mL	10 µg/mL	4 µg/mL	4 µg/mL

Continued, in another order:

MIC (Candida albicans)	MIC [1]	MIC (Penicillium commune)	MIC (Aspergillis niger)	SMILES	Minimum Inhibitory Concentration (Candida albicans)	Minimum Inhibitory Concentration [1]	Minimum Inhibitory Concentration (Penicillium commune)	Minimum Inhibitory Concentration (Aspergillis niger)
10 µg/mL (≈ 29.5 µM)	0.5 µg/mL (≈ 1.47 µM)	4 µg/mL (≈ 11.8 µM)	4 µg/mL (≈ 11.8 µM)	Cc1ccc(C(c2ccccc2)(c2ccccn2)n2ccnc2)c(C)c1 (stereo not drawn) [Example 2, 1-(2,4-dimethylphenyl-phenyl-2-pyridyl)-methyl-imidazole]				
1 µg/mL	0.5 µg/mL	10 µg/mL	4 µg/mL	Cc1cccc(C)c1C(c1ccccc1)(c1ccccn1)n1ccnc1 (stereo not drawn) [Example 3, 1-(2,6-dimethylphenyl-phenyl-2-pyridyl)-methyl-imidazole hydrochloride]				
4 µg/mL (≈ 11.8 µM)	0.5 µg/mL (≈ 1.47 µM)	40 µg/mL (≈ 118 µM)	40 µg/mL (≈ 118 µM)	Cc1ccc(C)c(C(c2ccccc2)(c2ccncc2)n2ccnc2)c1 (stereo not drawn) [Example 6, 1-(2,5-dimethylphenyl-phenyl-4-pyridyl)-methyl-imidazole]				
1 µg/mL (≈ 2.95 µM)				Cc1cccc(C(c2ccccc2)(c2ccccn2)n2ccnc2)c1C (stereo not drawn) [Example 7, 1-(2,3-dimethylphenyl-phenyl-2-pyridyl)-methyl-imidazole]		0.05 µg/mL	1 µg/mL	0.1 µg/mL
4 µg/mL (≈ 10.5 µM)	< 4 µg/mL	< 4 µg/mL	< 4 µg/mL	FC(F)(F)c1cccc(C(c2ccccc2)(c2ccccn2)n2ccnc2)c1 (stereo not drawn) [Known Compound 2, 1-(3-trifluoromethylphenyl-phenyl-2-pyridyl)-methylimidazole, reference compound]		> 2 µg/mL	> 2 µg/mL	> 2 µg/mL
1 µg/mL (≈ 2.95 µM)				Cc1ccc(C(c2ccccc2)(c2ccncc2)n2ccnc2)cc1C (stereo not drawn) [Example 5, 1-(3,4-dimethylphenyl-phenyl-4-pyridyl)-methyl-imidazole]		0.5 µg/mL	10 µg/mL	1 µg/mL
1 µg/mL (≈ 2.95 µM)	0.5 µg/mL (≈ 1.47 µM)	4 µg/mL (≈ 11.8 µM)	< 1 µg/mL	Cc1ccc(C(c2ccccc2)(c2ccccn2)n2ccnc2)cc1C (stereo not drawn) [Example 1, 1-(3,4-dimethylphenyl-phenyl-2-pyridyl)-methyl-imidazole]				
